Experimental data: PubChem BioAssay (NCI)
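Test compounds were applied to cells in 96-well plates for 48 hours at 5 doses. GI50 is the concentration that inhibits growth by half. TGI: total growth inhibition.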

Key:
Test in all cases: growth of human tumour cells (NCI), 48 h
786-0 renal = test system: 786-0 renal
A498 renal = test system: A498 renal
A549 NSCLC = test system: A549 NSCLC
ACHN renal = test system: ACHN renal
BT-549 breast = test system: BT-549 breast
CAKI-1 renal = test system: CAKI-1 renal
CCRF-CEM leukemia = test system: CCRF-CEM leukemia
COLO 205 colon = test system: COLO 205 colon
DU-145 prostate = test system: DU-145 prostate
EKVX NSCLC = test system: EKVX NSCLC
HCC-2998 colon = test system: HCC-2998 colon
HCT-116 colon = test system: HCT-116 colon
HCT-15 colon = test system: HCT-15 colon
HL-60(TB) leukemia = test system: HL-60(TB) leukemia
HOP-62 NSCLC = test system: HOP-62 NSCLC
HOP-92 NSCLC = test system: HOP-92 NSCLC
HS 578T breast = test system: HS 578T breast
HT29 colon = test system: HT29 colon
IGROV1 ovarian = test system: IGROV1 ovarian
K-562 leukemia = test system: K-562 leukemia
KM12 colon = test system: KM12 colon
LOX IMVI melanoma = test system: LOX IMVI melanoma
M14 melanoma = test system: M14 melanoma
MALME-3M melanoma = test system: MALME-3M melanoma
MCF7 breast = test system: MCF7 breast
MDA-MB-231 breast = test system: MDA-MB-231 breast
MDA-MB-435 = test system: MDA-MB-435
MDA-MB-468 breast = test system: MDA-MB-468 breast
MOLT-4 leukemia = test system: MOLT-4 leukemia
NCI-H226 lung = test system: NCI-H226 lung
NCI-H23 lung = test system: NCI-H23 lung
NCI-H460 lung = test system: NCI-H460 lung
NCI-H522 lung = test system: NCI-H522 lung
NCI/ADR-RES ovarian = test system: NCI/ADR-RES ovarian
OVCAR-3 ovarian = test system: OVCAR-3 ovarian
OVCAR-4 ovarian = test system: OVCAR-4 ovarian
OVCAR-5 ovarian = test system: OVCAR-5 ovarian
OVCAR-8 ovarian = test system: OVCAR-8 ovarian
PC-3 prostate = test system: PC-3 prostate
RPMI-8226 leukemia = test system: RPMI-8226 leukemia
RXF 393 renal = test system: RXF 393 renal
SF-268 CNS = test system: SF-268 CNS
SF-295 CNS = test system: SF-295 CNS
SF-539 CNS = test system: SF-539 CNS
SK-MEL-2 melanoma = test system: SK-MEL-2 melanoma
SK-MEL-28 melanoma = test system: SK-MEL-28 melanoma
SK-MEL-5 melanoma = test system: SK-MEL-5 melanoma
SK-OV-3 ovarian = test system: SK-OV-3 ovarian
SN12C renal = test system: SN12C renal
SNB-19 CNS = test system: SNB-19 CNS
SNB-75 CNS = test system: SNB-75 CNS
SR leukemia = test system: SR leukemia
SW-620 colon = test system: SW-620 colon
T-47D breast = test system: T-47D breast
TK-10 renal = test system: TK-10 renal
U251 CNS = test system: U251 CNS
UACC-257 melanoma = test system: UACC-257 melanoma
UACC-62 melanoma = test system: UACC-62 melanoma
UO-31 renal = test system: UO-31 renal

In the case of `COc1ccc(S(=O)(=O)Nc2ccc(-c3ccc4c(c3)NC(=O)/C4=C\c3ccc[nH]3)cc2)cc1OC`, the GI50 (786-0 renal) is reported as 3.43 µM, the TGI (786-0 renal) is reported as 15.2 µM and the GI50 (A498 renal) is reported as 14.3 µM. The TGI (A498 renal) was 28.5 µM, the GI50 (A549 NSCLC) was 2180 nM and the TGI (A549 NSCLC) was 14.2 µM. The GI50 (ACHN renal) was 6.99 µM, the TGI (ACHN renal) was 20.2 µM and the GI50 (BT-549 breast) was 2230 nM. For the same compound, the TGI (BT-549 breast) was 9.35 µM, the GI50 (CAKI-1 renal) was 6.18 µM and the TGI (CAKI-1 renal) was 19.9 µM. The GI50 (CCRF-CEM leukemia) was 16.1 µM, the TGI (CCRF-CEM leukemia) was over 100 µM and the GI50 (COLO 205 colon) was 10.2 µM. For the same compound, the TGI (COLO 205 colon) was 83.3 µM, the GI50 (DU-145 prostate) was 4.88 µM and the TGI (DU-145 prostate) was 20.8 µM. The GI50 (EKVX NSCLC) was 83.5 nM, the TGI (EKVX NSCLC) was 17.5 µM and the GI50 (HCC-2998 colon) was 5.74 µM. The TGI (HCC-2998 colon) was over 100 µM, the GI50 (HCT-116 colon) was 4.72 µM and the TGI (HCT-116 colon) was 88.5 µM. It also gave a GI50 (HCT-15 colon) of 13.7 µM, a TGI (HCT-15 colon) of over 100 µM and a GI50 (HL-60(TB) leukemia) of 8.35 µM. The TGI (HL-60(TB) leukemia) was over 100 µM, the GI50 (HOP-62 NSCLC) was 10.2 µM and the TGI (HOP-62 NSCLC) was 23.3 µM. For the same compound, the GI50 (HOP-92 NSCLC) was 3.43 µM, the TGI (HOP-92 NSCLC) was 18.3 µM and the GI50 (HS 578T breast) was 4.6 µM. For the same compound, the TGI (HS 578T breast) was 61.8 µM, the GI50 (HT29 colon) was 7.61 µM and the TGI (HT29 colon) was over 100 µM. The GI50 (IGROV1 ovarian) was 12.9 µM, the TGI (IGROV1 ovarian) was 33 µM and the GI50 (K-562 leukemia) was 11.9 µM. The TGI (K-562 leukemia) was over 100 µM, the GI50 (KM12 colon) was 9.03 µM and the TGI (KM12 colon) was over 100 µM. It also gave a GI50 (LOX IMVI melanoma) of 6.39 µM, a TGI (LOX IMVI melanoma) of 27.6 µM and a GI50 (M14 melanoma) of 2400 nM. The TGI (M14 melanoma) was 17.4 µM, the GI50 (MALME-3M melanoma) was 4.26 µM and the TGI (MALME-3M melanoma) was 15.9 µM. The GI50 (MCF7 breast) was 47.6 nM, the TGI (MCF7 breast) was 11.1 µM and the GI50 (MDA-MB-231 breast) was 3.82 µM. It also gave a TGI (MDA-MB-231 breast) of 15.3 µM, a GI50 (MDA-MB-435) of 6.35 µM and a TGI (MDA-MB-435) of 38.9 µM. For the same compound, the GI50 (MDA-MB-468 breast) was 30.9 nM, the TGI (MDA-MB-468 breast) was 113 nM and the GI50 (MOLT-4 leukemia) was 14.8 µM. The TGI (MOLT-4 leukemia) was over 100 µM, the GI50 (NCI-H226 lung) was 1820 nM and the TGI (NCI-H226 lung) was 12.8 µM. For the same compound, the GI50 (NCI-H23 lung) was 194 nM, the TGI (NCI-H23 lung) was 14.7 µM and the GI50 (NCI-H460 lung) was 343 nM. The TGI (NCI-H460 lung) was 11.3 µM, the GI50 (NCI-H522 lung) was 3.25 µM and the TGI (NCI-H522 lung) was 23 µM. For the same compound, the GI50 (NCI/ADR-RES ovarian) was 14 µM, the TGI (NCI/ADR-RES ovarian) was over 100 µM and the GI50 (OVCAR-3 ovarian) was 8.4 µM. The TGI (OVCAR-3 ovarian) was 27.5 µM, the GI50 (OVCAR-4 ovarian) was 1760 nM and the TGI (OVCAR-4 ovarian) was 11.8 µM. The GI50 (OVCAR-5 ovarian) was 10.6 µM, the TGI (OVCAR-5 ovarian) was 23.8 µM and the GI50 (OVCAR-8 ovarian) was 11.2 µM. It also gave a TGI (OVCAR-8 ovarian) of 28.9 µM, a GI50 (PC-3 prostate) of 10.1 µM and a TGI (PC-3 prostate) of 41.3 µM. The GI50 (RPMI-8226 leukemia) was 8.33 µM, the TGI (RPMI-8226 leukemia) was over 100 µM and the GI50 (RXF 393 renal) was 1400 nM. The TGI (RXF 393 renal) was 6.74 µM, the GI50 (SF-268 CNS) was 15.3 µM and the TGI (SF-268 CNS) was 55.2 µM. It also gave a GI50 (SF-295 CNS) of 3.12 µM, a TGI (SF-295 CNS) of 15.1 µM and a GI50 (SF-539 CNS) of 1660 nM. For the same compound, the TGI (SF-539 CNS) was 11 µM, the GI50 (SK-MEL-2 melanoma) was 14.3 µM and the TGI (SK-MEL-2 melanoma) was 33.8 µM. For the same compound, the GI50 (SK-MEL-28 melanoma) was 886 nM, the TGI (SK-MEL-28 melanoma) was 7.07 µM and the GI50 (SK-MEL-5 melanoma) was 3.35 µM. The TGI (SK-MEL-5 melanoma) was 22.1 µM, the GI50 (SK-OV-3 ovarian) was 3.59 µM and the TGI (SK-OV-3 ovarian) was 15.1 µM. For the same compound, the GI50 (SN12C renal) was 12.4 µM, the TGI (SN12C renal) was 30.8 µM and the GI50 (SNB-19 CNS) was 12.6 µM. It also gave a TGI (SNB-19 CNS) of 26.3 µM, a GI50 (SNB-75 CNS) of 1370 nM and a TGI (SNB-75 CNS) of 21.2 µM. It also gave a GI50 (SR leukemia) of 860 nM, a TGI (SR leukemia) of over 100 µM and a GI50 (SW-620 colon) of 8.53 µM. It also gave a TGI (SW-620 colon) of 71.7 µM, a GI50 (T-47D breast) of 28.5 nM and a TGI (T-47D breast) of 1270 nM. The GI50 (TK-10 renal) was 3.3 µM, the TGI (TK-10 renal) was 18.7 µM and the GI50 (U251 CNS) was 10.1 µM. For the same compound, the TGI (U251 CNS) was 23.2 µM, the GI50 (UACC-257 melanoma) was 691 nM and the TGI (UACC-257 melanoma) was 12.1 µM. For the same compound, the GI50 (UACC-62 melanoma) was 750 nM, the TGI (UACC-62 melanoma) was 8.59 µM and the GI50 (UO-31 renal) was 12.9 µM. For the same compound, the TGI (UO-31 renal) was 27.4 µM.
